Data taken from patent US12173007B2, “Imidazopyridazine IL-17 inhibitor compounds” (Janssen Pharmaceutica NV, priority 2021, dated 2024).

Legend:
[1] = molecular target: T1, IL-17A(FLAG-Tagged): IL-17RA(His-Tagged) binding (Homo sapiens, UniProt Q16552, K93Q); experiment: IL-17A(FLAG-tagged):IL-17RA(His-tagged) binding disruption Eu-HTRF assay, Protocol 1; conditions: FLAG-IL-17A 2.5 nM; average if tested more than once
Excerpt: IL-17A(FLAG-Tagged): IL-17RA(His-Tagged) Binding Disruption Eu-HTRF Assay
An antibody directed against the FLAG tag of IL-17A (SEQ ID NO: 1) is labeled with the HTRF donor chromophore (Europium-cryptate). IL-17A is present as a dimer that is “locked into” this quaternary structure due to the formation of loop-spanning […] disulfide bridges. The construct of IL-17RA used in the assay excludes the […] portion of the receptor and is fused to a C-terminal 10×His tag (SEQ ID NO:2). An antibody directed against the His tag of the IL-17RA chimera is labeled with the HTRF acceptor chromophore (“D2”). The fluorescence-resonance energy transfer (FRET) depends on the vicinity of the donor chromophore to the acceptor, and interruption of the binding between the IL-17A and IL-17RA causes the reduction/loss of FRET. Therefore, this assay allows to evaluate the compound effect on the binding IL-17A and IL-17RA by monitoring the fluorescence intensity of donor vs acceptor. The assay was run using either Protocol 1 or Protocol 2 as described below.
Protocol 1. 40 nl of 2-fold serial diluted compound solution for total 22 dilution points is added into each well of a 1536-well, white, low-volume, non-binding plate (Greiner #782904), then 2 μl of FLAG tagged IL-17A at 2×final concentration (2.5 nM) in solution of PBS+0.01% Triton-X100 is added to each well. The assay plate is briefly centrifuged then incubated for 1 h at rt. A mixed solution is prepared containing 2×5 nM 10HIS×IL-17RA, 2×2.5 nM Eu-anti-FLAG (CISBIO), 2×5 nM D2-anti-HIS (CISBIO) in PBS+0.01% Triton-X100+200 mM Potassium Fluoride (Sigma 60238) and 2 μl of mix is added to each well of the assay plate. The plate is briefly centrifuged then incubated for 2 h at rt. The HTRF intensities at the wavelength of donor (620 nm) and acceptor (665 nm) are measured using BMG Pherastar. The ratio between intensities at two wavelengths is calculated and plotted against the compound concentration and the data is fitted to a one-site competition model to yield IC50 of the compound.

[2] = system: IL-17A-induced G-CSF production in human normal keratinocyte (NHK); experiment: NHK assay: IL-17A-induced G-CSF production in normal human keratinocytes; type: cell-based; conditions: 24 h, IL-17A 5 ng/mL, G-CSF by HTRF, average if tested more than once
Outline: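 Stimulus rhIL-17A 5 ng/mL final, premixed 1 h rt with compound; adult NHK, 5% FBS, 0.2% DMSO. Viability by CellTiter-Glo vs DMSO.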

[3] = molecular target: T1, IL-17A(FLAG-Tagged): IL-17RA(His-Tagged) binding; experiment: IL-17A(FLAG-tagged):IL-17RA(His-tagged) binding disruption Eu-HTRF assay, Protocol 2; conditions: FLAG-IL-17A 1 nM; average if tested more than once
Outline: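 FLAG-tagged IL-17A (1 nM final) was preincubated with compound (2-fold serial dilutions, 22 points) for 1 h at rt in PBS + 0.01% Triton X-100. 10×His-IL-17RA, Eu-anti-FLAG and D2-anti-His in buffer containing KF were then added for 2 h at rt. IC50 came from the 665/615 nm HTRF ratio fitted to a one-site competition model.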

T1 sequence (Q16552 with tags, fused parts or gaps K93Q): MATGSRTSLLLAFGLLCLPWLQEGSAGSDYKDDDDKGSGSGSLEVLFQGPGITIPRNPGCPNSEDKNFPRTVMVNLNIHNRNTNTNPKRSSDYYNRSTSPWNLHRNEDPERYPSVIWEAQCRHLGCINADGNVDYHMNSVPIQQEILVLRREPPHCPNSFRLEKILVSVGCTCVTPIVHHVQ

IC50 [1] [µM]	IC50 [3] [µM]	Compound	IC50 ([2]; Homo sapiens, Keratinocyte) [µM]	IC50 [2] [µM]
< 0.05		CC1(F)CNC(=O)N(Cc2cnn3cc([C@@H](NC(=O)c4nonc4C4CC4)C4CCC(F)(F)CC4)nc3c2)C1 (single isomer, unassigned) [Example 1, 4-Cyclopropyl-N—((S)-(4,4-difluorocyclohexyl)(7-(((R*)-5-fluoro-5-methyl-2-oxotetrahydropyrimidin-1(2H)-yl)methyl)imidazo[1,2-b]pyridazin-2-yl)methyl)-1,2,5-oxadiazole-3-carboxamide]	> 0.1	
0.05 to 0.1		CC1(F)CNC(=O)N(Cc2cnn3cc([C@@H](NC(=O)c4nonc4C4CC4)C4CCC(F)(F)CC4)nc3c2)C1 (single isomer, unassigned) [Example 2, 4-Cyclopropyl-N—((S)-(4,4-difluorocyclohexyl)(7-(((S*)-5-fluoro-5-methyl-2-oxotetrahydropyrimidin-1(2H)-yl)methyl)imidazo[1,2-b]pyridazin-2-yl)methyl)-1,2,5-oxadiazole-3-carboxamide]		> 0.1
< 0.05		O=C(N[C@H](c1cn2ncc(CN3CC(C(F)(F)F)CNC3=O)cc2n1)C1CCC(F)(F)CC1)c1nonc1C1CC1 (single isomer, unassigned) [Example 5, 4-Cyclopropyl-N—((S)-(4,4-difluorocyclohexyl)(7-(((S*)-2-oxo-5-(trifluoromethyl)tetrahydropyrimidin-1(2H)-yl)methyl)imidazo[1,2-b]pyridazin-2-yl)methyl)-1,2,5-oxadiazole-3-carboxamide]		0.05 to 0.1
> 0.1		O=C(N[C@H](c1cn2ncc(CN3CC(C(F)(F)F)CNC3=O)cc2n1)C1CCC(F)(F)CC1)c1nonc1C1CC1 (single isomer, unassigned) [Example 6, 4-Cyclopropyl-N—((S)-(4,4-difluorocyclohexyl)(7-(((R*)-2-oxo-5-(trifluoromethyl)tetrahydropyrimidin-1(2H)-yl)methyl)imidazo[1,2-b]pyridazin-2-yl)methyl)-1,2,5-oxadiazole-3-carboxamide]	> 0.1	
< 0.05		COCC(c1cnn2cc([C@H](COC(C)(C)C(F)(F)F)NC(=O)c3nonc3C)nc2c1)N1CC(F)(F)CNC1=O (single isomer, unassigned) [Example 15, N—((R)-1-(7-((S*)-1-(5,5-Difluoro-2-oxotetrahydropyrimidin-1(2H)-yl)-2-methoxyethyl)imidazo[1,2-b]pyridazin-2-yl)-2-((1,1,1-trifluoro-2-methylpropan-2-yl)oxy)ethyl)-4-methyl-1,2,5-oxadiazole-3-carboxamide]	< 0.05	
< 0.05		CC1CNC(=O)N(Cc2cnn3cc([C@@H](NC(=O)c4nonc4C4CC4)C4CCC(F)(F)CC4)nc3c2)C1 (single isomer, unassigned) [Example 28, 4-Cyclopropyl-N—((S)-(4,4-difluorocyclohexyl)(7-(((S*)-5-methyl-2-oxotetrahydropyrimidin-1(2H)-yl)methyl)imidazo[1,2-b]pyridazin-2-yl)methyl)-1,2,5-oxadiazole-3-carboxamide]	> 0.1	
> 0.1		CC1CNC(=O)N(Cc2cnn3cc([C@@H](NC(=O)c4nonc4C4CC4)C4CCC(F)(F)CC4)nc3c2)C1 (single isomer, unassigned) [Example 29, 4-Cyclopropyl-N—((S)-(4,4-difluorocyclohexyl)(7-(((R*)-5-methyl-2-oxotetrahydropyrimidin-1(2H)-yl)methyl)imidazo[1,2-b]pyridazin-2-yl)methyl)-1,2,5-oxadiazole-3-carboxamide]		> 0.1
> 0.1		CC(c1cnn2cc([C@@H](NC(=O)c3nonc3C3CC3)C3CCC(F)(F)CC3)nc2c1)N1CC(F)(F)CNC1=O (single isomer, unassigned) [Example 92, 4-Cyclopropyl-N—((S)-(7-((S*)-1-(5,5-difluoro-2-oxotetrahydropyrimidin-1(2H)-yl)ethyl)imidazo[1,2-b]pyridazin-2-yl)(4,4-difluorocyclohexyl)methyl)-1,2,5-oxadiazole-3-carboxamide]	> 0.1	
> 0.1		Cc1nonc1C(=O)N[C@H](c1cn2ncc(C(C)N3CC(F)(F)CNC3=O)cc2n1)C1CCC(F)(F)CC1 (single isomer, unassigned) [Example 93, N—((S)-(7-((S*)-1-(5,5-Difluoro-2-oxotetrahydropyrimidin-1(2H)-yl)ethyl)imidazo[1,2-b]pyridazin-2-yl)(4,4-difluorocyclohexyl)methyl)-4-methyl-1,2,5-oxadiazole-3-carboxamide]	> 0.1	
> 0.1		CC1CCCN(Cc2cnn3cc([C@@H](NC(=O)c4ccnn4C(C)C)C4CCC(F)(F)CC4)nc3c2)C(=O)N1 (single isomer, unassigned) [Example 94, N—((S)-(4,4-Difluorocyclohexyl)(7-(((R*)-4-methyl-2-oxo-1,3-diazepan-1-yl)methyl)imidazo[1,2-b]pyridazin-2-yl)methyl)-1-isopropyl-1H-pyrazole-5-carboxamide]	> 0.1	
> 0.1		CC1CCCN(Cc2cnn3cc([C@@H](NC(=O)c4ccnn4C(C)C)C4CCC(F)(F)CC4)nc3c2)C(=O)N1 (single isomer, unassigned) [Example 95, N—((S)-(4,4-Difluorocyclohexyl)(7-(((S*)-4-methyl-2-oxo-1,3-diazepan-1-yl)methyl)imidazo[1,2-b]pyridazin-2-yl)methyl)-1-isopropyl-1H-pyrazole-5-carboxamide]		> 0.1
< 0.05		CC1CCCN(Cc2cnn3cc([C@@H](NC(=O)c4nonc4C4CC4)C4CCC(F)(F)CC4)nc3c2)C(=O)N1 (single isomer, unassigned) [Example 96, 4-Cyclopropyl-N—((S)-(4,4-difluorocyclohexyl)(7-(((R*)-4-methyl-2-oxo-1,3-diazepan-1-yl)methyl)imidazo[1,2-b]pyridazin-2-yl)methyl)-1,2,5-oxadiazole-3-carboxamide]	> 0.1	
0.05 to 0.1		CC1CCCN(Cc2cnn3cc([C@@H](NC(=O)c4nonc4C4CC4)C4CCC(F)(F)CC4)nc3c2)C(=O)N1 (single isomer, unassigned) [Example 97, 4-Cyclopropyl-N—((S)-(4,4-difluorocyclohexyl)(7-(((S*)-4-methyl-2-oxo-1,3-diazepan-1-yl)methyl)imidazo[1,2-b]pyridazin-2-yl)methyl)-1,2,5-oxadiazole-3-carboxamide]		> 0.1
	< 0.05	COC[C@H](c1cnn2cc([C@@H](NC(=O)c3nonc3C(C)(F)F)C3CCC(F)(F)CC3)nc2c1)N1CC(F)(F)CNC1=O [Example 127, N—((S)-(7-((S)-1-(5,5-Difluoro-2-oxotetrahydropyrimidin-1(2H)-yl)-2-methoxyethyl)imidazo[1,2-b]pyridazin-2-yl)(4,4-difluorocyclohexyl)methyl)-4-(1,1-difluoroethyl)-1,2,5-oxadiazole-3-carboxamide]	< 0.05	
	< 0.05	COC[C@H](c1cnn2cc([C@@H](NC(=O)c3nonc3CC(F)(F)F)C3CCC(F)(F)CC3)nc2c1)N1CC(F)(F)CNC1=O [Example 130, N—((S)-(7-((S)-1-(5,5-Difluoro-2-oxotetrahydropyrimidin-1(2H)-yl)-2-methoxyethyl)imidazo[1,2-b]pyridazin-2-yl)(4,4-difluorocyclohexyl)methyl)-4-(2,2,2-trifluoroethyl)-1,2,5-oxadiazole-3-carboxamide]	< 0.05	
	< 0.05	N—((S)-1-(7-((S)-2-Cyclopropoxy-1-(5,5-difluoro-2-oxotetrahydropyrimidin-1(2H)-yl-4,4,6,6-d4)ethyl)imidazo[1,2-b]pyridazin-2-yl)-5,5,5-trifluoro-4,4-dimethylpentyl)-1,2,5-oxadiazole-3-carboxamide trifluoroacetate [Example 131]		> 0.1
